Results published in patent US20060021075A1, “Group 1 CD1 transgenic mice and their uses” (priority 2004, published 2006).

Tested on: BM-DCs
Assay: Flow cytometric analysis of CD1a, b, c expression on BM-DCs of hCD1Tg mice
Format: cell-based, mouse
Conditions: BM-DCs from hCD1Tg mice cultured in GM-CSF and IL-4

## IFN-γ: cytokine tested for upregulation of CD1 on BM-DCs
  Upregulation of CD1a, b, and c expression on BM-DCs: cannot be upregulated

## TNF-α
  Upregulation of CD1a, b, and c expression on BM-DCs: cannot be upregulated
